Measurements reported in PubChem BioAssay AID1963825 (Molecular Pharmacology Branch, DTP, NCI, 2024).

Test: Anticancer human tumor 997537-175-T-J1-PDC patient-derived colon adenocarcinoma cell line growth inhibition [POLQ]
Details: 997537-175-T-J1-PDC complex spheroid viability, combination with POLQ inhibitors; for IC50: curve of first compound; for viability, T/C: stronger effect = lower value; active = viability on the fitted dose curve at most 10% of control; inactive = the rest
Procedure, shortened: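 Growth inhibition in 3D: complex spheroids (tumor PDC, HUVEC, MSC) treated with POLQ inhibitor combinations; where Cmax unknown, highest tested concentration 10 microM, except SN-38 at 1 microM.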

[1] = second compound 0.0316 µM, first compound 0.0316 µM
[2] = second compound 0.0316 µM, first compound 0.1 µM
[3] = second compound 0.0316 µM, first compound 0.316 µM
[4] = second compound 0.0316 µM, first compound 1 µM
[5] = second compound 0.1 µM, first compound 0.0316 µM
[6] = second compound 0.1 µM, first compound 0.1 µM
[7] = second compound 0.1 µM, first compound 0.316 µM
[8] = second compound 0.1 µM, first compound 1 µM
[9] = second compound 0.316 µM, first compound 0.0316 µM
[10] = second compound 0.316 µM, first compound 0.1 µM
[11] = second compound 0.316 µM, first compound 0.316 µM
[12] = second compound 0.316 µM, first compound 1 µM
[13] = second compound 1 µM, first compound 0.0316 µM
[14] = second compound 1 µM, first compound 0.1 µM
[15] = second compound 1 µM, first compound 0.316 µM
[16] = second compound 1 µM, first compound 1 µM
[17] = second compound 3.16 µM, first compound 0.0316 µM
[18] = second compound 3.16 µM, first compound 0.1 µM
[19] = second compound 3.16 µM, first compound 0.316 µM
[20] = second compound 3.16 µM, first compound 1 µM
[21] = second compound 10 µM, first compound 0.0316 µM
[22] = second compound 10 µM, first compound 0.1 µM
[23] = second compound 10 µM, first compound 0.316 µM
[24] = second compound 10 µM, first compound 1 µM
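Note: luminescence signal used as a surrogate for viable cells; spheroids exposed to drugs for seven days before readout.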

C=CCn1c(=O)c2cnc(Nc3ccc(N4CCN(C)CC4)cc3)nc2n1-c1cccc(C(C)(C)O)n1 + Nc1ccc(C#CCN(C(=O)Cc2ncc(C(F)(F)F)cc2C(F)(F)F)c2ccc(F)cc2)nn1
> 1 µM: IC50 (second compound 0.0316 µM) | IC50 (second compound 0.1 µM) | IC50 (second compound 0.316 µM) | IC50 (second compound 1 µM) | IC50 (second compound 3.16 µM) | IC50 (second compound 10 µM)
inactive: viability, T/C (second compound 0.0316 µM, first compound 0.00316 µM) 92.5% | viability, T/C (second compound 0.0316 µM, first compound 0.01 µM) 99.7% | viability, T/C [1] 89.3% | viability, T/C [2] 97.9% | viability, T/C [3] 89.8% | viability, T/C [4] 50.6% | viability, T/C (second compound 0.1 µM, first compound 0.00316 µM) 95.9% | viability, T/C (second compound 0.1 µM, first compound 0.01 µM) 96.8% | viability, T/C [5] 94.4% | viability, T/C [6] 95.1% | viability, T/C [7] 98.4% | viability, T/C [8] 73% | viability, T/C (second compound 0.316 µM, first compound 0.00316 µM) 92.6% | viability, T/C (second compound 0.316 µM, first compound 0.01 µM) 97.3% | viability, T/C [9] 90.8% | viability, T/C [10] 82% | viability, T/C [11] 76.3% | viability, T/C [12] 55.1% | viability, T/C (second compound 1 µM, first compound 0.00316 µM) 88.3% | viability, T/C (second compound 1 µM, first compound 0.01 µM) 104% | viability, T/C [13] 94.4% | viability, T/C [14] 84.5% | viability, T/C [15] 92.9% | viability, T/C [16] 62.2% | viability, T/C (second compound 3.16 µM, first compound 0.00316 µM) 81.3% | viability, T/C (second compound 3.16 µM, first compound 0.01 µM) 93.7% | viability, T/C [17] 94.8% | viability, T/C [18] 94.3% | viability, T/C [19] 106% | viability, T/C [20] 55.1% | viability, T/C (second compound 10 µM, first compound 0.00316 µM) 96.5% | viability, T/C (second compound 10 µM, first compound 0.01 µM) 85.5% | viability, T/C [21] 87.6% | viability, T/C [22] 80.9% | viability, T/C [23] 97.4% | viability, T/C [24] 72.9%

O=C(c1cc(Cc2n[nH]c(=O)c3ccccc23)ccc1F)N1CCN(C(=O)C2CC2)CC1 + Nc1ccc(C#CCN(C(=O)Cc2ncc(C(F)(F)F)cc2C(F)(F)F)c2ccc(F)cc2)nn1
> 10 µM: IC50 (second compound 0.0316 µM) | IC50 (second compound 0.1 µM) | IC50 (second compound 0.316 µM) | IC50 (second compound 1 µM) | IC50 (second compound 3.16 µM) | IC50 (second compound 10 µM)
inactive: viability, T/C [1] 108% | viability, T/C [2] 104% | viability, T/C [3] 100% | viability, T/C [4] 99.9% | viability, T/C (second compound 0.0316 µM, first compound 3.16 µM) 95.3% | viability, T/C (second compound 0.0316 µM, first compound 10 µM) 82% | viability, T/C [5] 108% | viability, T/C [6] 103% | viability, T/C [7] 94.4% | viability, T/C [8] 93.7% | viability, T/C (second compound 0.1 µM, first compound 3.16 µM) 84.6% | viability, T/C (second compound 0.1 µM, first compound 10 µM) 94.8% | viability, T/C [9] 106% | viability, T/C [10] 111% | viability, T/C [11] 104% | viability, T/C [12] 98.3% | viability, T/C (second compound 0.316 µM, first compound 3.16 µM) 93.5% | viability, T/C (second compound 0.316 µM, first compound 10 µM) 98.9% | viability, T/C [13] 104% | viability, T/C [14] 98.2% | viability, T/C [15] 103% | viability, T/C [16] 104% | viability, T/C (second compound 1 µM, first compound 3.16 µM) 93.2% | viability, T/C (second compound 1 µM, first compound 10 µM) 99.3% | viability, T/C [17] 96.7% | viability, T/C [18] 94.4% | viability, T/C [19] 98.8% | viability, T/C [20] 90.1% | viability, T/C (second compound 3.16 µM, first compound 3.16 µM) 98.5% | viability, T/C (second compound 3.16 µM, first compound 10 µM) 95.3% | viability, T/C [21] 108% | viability, T/C [22] 103% | viability, T/C [23] 97.3% | viability, T/C [24] 91.3% | viability, T/C (second compound 10 µM, first compound 3.16 µM) 112% | viability, T/C (second compound 10 µM, first compound 10 µM) 98.9%
